Assay results as given in PMC8939339, “Mechanism of Cooperative Degradation of Gum Arabic Arabinogalactan Protein by Bifidobacterium longum Surface Enzymes” (Applied and Environmental Microbiology, 2022).

Target: T1, BlArafE (Bifidobacterium longum, UniProt A0ACD7UMY4)
T1 construct: gene BLLJ_1850; signal peptide (aa 1-26) and C-terminal TM region (aa 1637-1659) removed; printed insert 88 to 4899 (nucleotides); His-tag (printed both as C- and N-terminal; pET23b); E. coli BL21(DE3); 175 kDa
Assay: HPAEC-PAD of reaction products
Assay type: biochemical
Conditions: 50 mM sodium acetate pH 6.0, 37 °C, 16 h; both alpha1,3- and alpha1,4-Araf cleaved

T1 sequence (A0ACD7UMY4 30-1633): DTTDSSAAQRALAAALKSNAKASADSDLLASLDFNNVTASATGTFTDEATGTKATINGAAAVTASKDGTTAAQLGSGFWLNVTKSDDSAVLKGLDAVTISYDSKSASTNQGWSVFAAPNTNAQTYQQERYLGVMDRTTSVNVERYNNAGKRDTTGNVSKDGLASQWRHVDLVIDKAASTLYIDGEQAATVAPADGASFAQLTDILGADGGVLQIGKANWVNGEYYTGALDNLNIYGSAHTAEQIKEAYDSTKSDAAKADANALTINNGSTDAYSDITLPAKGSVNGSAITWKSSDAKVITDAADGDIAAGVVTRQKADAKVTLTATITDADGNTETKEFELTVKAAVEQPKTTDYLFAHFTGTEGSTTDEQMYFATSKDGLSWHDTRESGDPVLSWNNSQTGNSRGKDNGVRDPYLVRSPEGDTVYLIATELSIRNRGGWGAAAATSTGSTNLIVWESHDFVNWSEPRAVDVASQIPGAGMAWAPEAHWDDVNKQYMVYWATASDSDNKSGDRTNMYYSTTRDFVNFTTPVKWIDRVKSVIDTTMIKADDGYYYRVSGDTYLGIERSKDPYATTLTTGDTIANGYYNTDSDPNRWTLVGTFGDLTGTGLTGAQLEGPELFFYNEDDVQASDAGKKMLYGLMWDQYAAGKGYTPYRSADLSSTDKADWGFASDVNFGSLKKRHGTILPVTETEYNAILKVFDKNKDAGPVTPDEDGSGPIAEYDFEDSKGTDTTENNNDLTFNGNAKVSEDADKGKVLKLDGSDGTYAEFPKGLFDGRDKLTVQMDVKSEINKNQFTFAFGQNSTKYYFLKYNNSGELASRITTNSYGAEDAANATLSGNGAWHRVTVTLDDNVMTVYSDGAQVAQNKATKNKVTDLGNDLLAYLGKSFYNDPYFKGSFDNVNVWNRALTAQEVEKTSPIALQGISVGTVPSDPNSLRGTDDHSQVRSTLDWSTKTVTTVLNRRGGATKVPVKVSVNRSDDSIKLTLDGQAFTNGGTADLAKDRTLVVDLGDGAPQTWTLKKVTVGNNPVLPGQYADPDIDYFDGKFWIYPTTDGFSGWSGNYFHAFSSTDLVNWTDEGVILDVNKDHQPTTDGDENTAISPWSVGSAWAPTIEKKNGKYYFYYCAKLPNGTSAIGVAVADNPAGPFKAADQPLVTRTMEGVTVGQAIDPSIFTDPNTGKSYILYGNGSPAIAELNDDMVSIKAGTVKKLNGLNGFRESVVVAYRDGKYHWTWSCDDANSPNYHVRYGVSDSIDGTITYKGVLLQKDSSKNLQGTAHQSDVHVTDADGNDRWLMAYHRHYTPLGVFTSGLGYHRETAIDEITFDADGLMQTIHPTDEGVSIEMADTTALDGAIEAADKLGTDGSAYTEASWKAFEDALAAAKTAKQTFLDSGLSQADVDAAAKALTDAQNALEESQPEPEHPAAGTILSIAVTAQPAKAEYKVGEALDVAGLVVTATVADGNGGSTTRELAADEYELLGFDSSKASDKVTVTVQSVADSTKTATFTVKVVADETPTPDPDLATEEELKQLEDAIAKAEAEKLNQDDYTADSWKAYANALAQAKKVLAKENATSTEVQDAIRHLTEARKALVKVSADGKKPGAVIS

## C[C@@H]1O[C@@H](O[C@H]2[C@H](O)[C@@H](O)[C@H](OC[C@H]3O[C@@H](OC[C@H]4OC(O)[C@H](O)[C@@H](O)[C@H]4O)[C@H](O)[C@@H](OC4O[C@@H](CO)C(O)[C@H]4O)[C@H]3OC3O[C@@H](CO)C(O)[C@H]3O)O[C@@H]2C(=O)O)[C@H](O)[C@H](O)[C@H]1O (stereo partly shown) [S5-A]
  HPAEC-PAD of reaction products: BlArafE cleaved S5-A into S4 and L-arabinose
